The target of assay [1] is T1, full-length beta-Catenin (Uniprot ID P35222) (Homo sapiens, UniProt P35222).
T1 construct: 10 nM full-length beta-Catenin (Uniprot ID P35222)
T1 sequence (P35222 1-781): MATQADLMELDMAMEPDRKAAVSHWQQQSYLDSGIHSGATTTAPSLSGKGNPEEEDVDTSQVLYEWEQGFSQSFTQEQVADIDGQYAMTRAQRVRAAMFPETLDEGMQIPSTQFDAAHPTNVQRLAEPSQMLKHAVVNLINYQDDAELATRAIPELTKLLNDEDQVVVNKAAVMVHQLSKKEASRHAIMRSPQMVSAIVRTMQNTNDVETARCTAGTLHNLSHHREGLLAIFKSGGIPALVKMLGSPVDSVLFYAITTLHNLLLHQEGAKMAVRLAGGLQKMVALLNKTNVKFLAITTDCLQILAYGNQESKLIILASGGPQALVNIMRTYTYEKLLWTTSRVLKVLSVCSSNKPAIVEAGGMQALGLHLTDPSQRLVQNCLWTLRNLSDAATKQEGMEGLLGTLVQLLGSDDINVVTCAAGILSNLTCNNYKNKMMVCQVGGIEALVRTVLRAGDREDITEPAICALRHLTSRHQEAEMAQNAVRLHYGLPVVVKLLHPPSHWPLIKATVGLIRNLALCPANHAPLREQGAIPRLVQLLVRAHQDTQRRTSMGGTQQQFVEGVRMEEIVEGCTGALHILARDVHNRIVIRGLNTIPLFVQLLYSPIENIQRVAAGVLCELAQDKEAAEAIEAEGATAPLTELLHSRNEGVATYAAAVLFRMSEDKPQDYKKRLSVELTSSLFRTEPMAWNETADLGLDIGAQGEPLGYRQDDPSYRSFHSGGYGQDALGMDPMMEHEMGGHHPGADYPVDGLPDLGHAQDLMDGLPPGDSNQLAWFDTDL
Nature of the assay: Fluorescence polarization IC50 (beta-catenin / 5FAM-TCF4 10-53 competition). It counts as binding. As to conditions: read-out: beta-Catenin FP IC50.

The target in assay [2] is T2, beta-catenin/TCF4 engagement (Homo sapiens, UniProt P35222).
T2 construct: expressed in transfected cells; host or cells: HEK293
T2 sequence (P35222 1-781): T1 sequence (P35222 1-781)
Nature of the assay: Nano-BRET target engagement assay (B-cat-Halo & TCF4-Luc in HEK293 cells). As to conditions: read-out: NanoBRET Abs IC50. It counts as cell-based. On the technique in general: Bioluminescence resonance energy transfer reports proximity on the nanometre scale.

Read-outs that look alike come from different tables or passages of the source.

Broadly, the IC50 is the concentration that gives 50% inhibition.

For `CC(=O)N1CCC[C@]12CC=CCCCC1(CCCC=CCCCOC(=O)N3CC[C@@](C(=O)N[C@@H](Cc4ccsc4)C(=O)N[C@@H](Cc4csc5ccccc45)C(=O)N[C@@H](CCC(N)=O)C(N)=O)(C3)NC(=O)[C@H](CC(C)C)NC(=O)C(Cc3cccc(C(=O)Oc4ccccc4)c3)NC(=O)[C@H](C)NC(=O)[C@H](C)NC(=O)[C@H](CN(CC(=O)O)CC(F)(F)F)NC(=O)[C@H](CC(=O)O)NC1=O)NC(=O)[C@H](CC(C)(C)C)NC(=O)[C@H](CC(=O)O)NC2=O` (single isomer, unassigned) [I-2151, Ac-PL3-Asp-Npg-B5-Asp-TfeGA-Ala-Ala-3CO2PhF-Leu-PyrS2-3Thi-BztA-Gln-NH2], the IC50 in assay [1] (fluorescence polarization) was found to be 58 nM; in assay [2] it was 14600 nM.
Turning to `CC(=O)N1CCC[C@]12CC=CCC1(CC=CCCCCCOC(=O)N3CC[C@](C(=O)N[C@@H](Cc4ccsc4)C(=O)N[C@@H](Cc4csc5ccccc45)C(=O)N[C@@H](CCC(N)=O)C(N)=O)(C3)NC(=O)[C@H](CC(C)C)NC(=O)[C@H](Cc3ccccc3)NC(=O)[C@H](C)NC(=O)[C@H](C)NC(=O)[C@H](CC(=O)O)NC(=O)[C@H](CC(=O)O)NC1=O)NC(=O)[C@H](CC(C)(C)C)NC(=O)[C@H](CC(=O)O)NC2=O` (single isomer, unassigned) [I-2158, Ac-PL3-Asp-Npg-B3-Asp-Asp-Ala-Ala-Phe-Leu-PyrS4-3Thi-BztA-Gln-NH2], the IC50 was 213 nM in assay [1] (fluorescence polarization) and over 20000 nM in assay [2].
For `CC(=O)N1CCC[C@]12CC=CCC1(CC=CCCCCCOC(=O)N3CC[C@](C(=O)N[C@@H](Cc4ccsc4)C(=O)N[C@@H](Cc4csc5ccccc45)C(=O)N[C@@H](CCC(N)=O)C(N)=O)(C3)NC(=O)[C@H](CC(C)C)NC(=O)[C@H](Cc3ccccc3)NC(=O)[C@H](C)NC(=O)[C@H](C)NC(=O)[C@H](CC(=O)O)NC(=O)[C@H](CC(=O)O)NC1=O)NC(=O)[C@H](CC(C)(C)C)NC(=O)[C@H](CC(=O)O)NC2=O` (single isomer, unassigned) [I-2159, Ac-PL3-Asp-Npg-B3-Asp-Asp-Ala-Ala-Phe-Leu-PyrS4-3Thi-BztA-Gln-NH2], the values for the IC50 in assay [1] (fluorescence polarization) and in assay [2] were 116 nM and over 20000 nM, respectively.
In the case of `CC(=O)N1CCC[C@]12CC=CCCCC1(CCCC=CCCCOC(=O)N3CC[C@@](C(=O)N[C@@H](Cc4ccccc4Cl)C(=O)N[C@@H](Cc4csc5ccccc45)C(=O)N[C@H](CO)Cc4ccccc4)(C3)NC(=O)[C@H](CC(N)=O)NC(=O)[C@H](Cc3ccccc3)NC(=O)[C@H](C)NC(=O)[C@H](C)NC(=O)[C@H](CC(=O)O)NC(=O)[C@H](CC(=O)O)NC1=O)NC(=O)[C@H](CC(C)(C)C)NC(=O)[C@H](CC(=O)O)NC2=O` (stereo partly drawn) [I-1083, Ac-PL3-Asp-Npg-B5-Asp-Asp-Ala-Ala-Phe-Asn-PyrS2-2C1F-BztA-Pheo1], the results for the IC50 in assay [1] and in assay [2] (absolute IC50) were 8 nM and 18800 nM, respectively.
For `CC(=O)N1CCC[C@]12CC=CCCCC1(CCCC=CCCCOC(=O)N3CC[C@@](C(=O)N[C@@H](Cc4ccccc4Cl)C(=O)N[C@@H](Cc4csc5ccccc45)C(=O)N[C@@H](CCO)C(N)=O)(C3)NC(=O)[C@H](CO)NC(=O)[C@H](Cc3ccccc3)NC(=O)[C@H](C)NC(=O)[C@H](C)NC(=O)[C@H](CC(=O)O)NC(=O)[C@H](CC(=O)O)NC1=O)NC(=O)[C@H](CC1CCCCC1)NC(=O)[C@H](CC(=O)O)NC2=O` (stereo partly drawn) [I-1137, Ac-PL3-Asp-Cha-B5-Asp-Asp-Ala-Ala-Phe-Ser-PyrS2-2C1F-BztA-Hse-NH2], the figures for the IC50 in assay [1] (fluorescence polarization) and in assay [2] (absolute IC50) were 8 nM and 12000 nM, respectively.
Taken in the same sequence, the figures for `CC(=O)N1CCC[C@]12CC=CCCCC1(CCCC=CCCCOC(=O)N3CC[C@@](C(=O)N[C@@H](Cc4ccccc4Cl)C(=O)N[C@@H](Cc4csc5ccccc45)C(=O)N[C@@H](CC(C)C)C(N)=O)(C3)NC(=O)[C@H](CO)NC(=O)[C@H](Cc3ccccc3)NC(=O)[C@H](C)NC(=O)[C@H](C)NC(=O)[C@H](CC(=O)O)NC(=O)[C@H](CC(=O)O)NC1=O)NC(=O)[C@H](CC1CCCCC1)NC(=O)[C@H](CC(=O)O)NC2=O` (stereo partly drawn) [I-1138, Ac-PL3-Asp-Cha-B5-Asp-Asp-Ala-Ala-Phe-Ser-PyrS2-2C1F-BztA-Leu-NH2] were 18 nM and 19800 nM.
Taken in the same sequence, the figures for `CC(=O)N1CCC[C@]12CC=CCCCC1(CCCC=CCCCOC(=O)N3CC[C@@](C(=O)N[C@@H](Cc4ccccc4Cl)C(=O)N[C@@H](Cc4csc5ccccc45)C(=O)N[C@H](C(N)=O)[C@@H](C)O)(C3)NC(=O)[C@H](CC(C)C)NC(=O)[C@H](Cc3ccccc3)NC(=O)[C@H](C)NC(=O)[C@H](C)NC(=O)[C@H](CC(=O)O)NC(=O)[C@H](CC(=O)O)NC1=O)NC(=O)[C@H](CC1CCCCC1)NC(=O)[C@H](CC(=O)O)NC2=O` (stereo partly drawn) [I-1139, Ac-PL3-Asp-Cha-B5-Asp-Asp-Ala-Ala-Phe-Leu-PyrS2-2C1F-BztA-Thr-NH2] were 22 nM and 18000 nM.
`CC(=O)N1CCC[C@]12CC=CCCCC1(CCCC=CCCCOC(=O)N3CC[C@@](C(=O)N[C@@H](Cc4ccccc4Cl)C(=O)N[C@@H](Cc4csc5ccccc45)C(=O)N[C@@H](CCC(N)=O)C(N)=O)(C3)NC(=O)[C@H](CO)NC(=O)[C@H](Cc3ccccc3)NC(=O)[C@H](C)NC(=O)[C@H](CC(C)C)NC(=O)[C@H](CC(=O)O)NC(=O)[C@H](CC(=O)O)NC1=O)NC(=O)[C@H](Cc1ccccc1)NC(=O)[C@H](CC(=O)O)NC2=O` (stereo partly drawn) [I-1153, Ac-PL3-Asp-Phe-B5-Asp-Asp-Leu-Ala-Phe-Ser-PyrS2-2C1F-BztA-Gln-NH2]: the IC50 in assay [1] (fluorescence polarization) is 12 nM; in assay [2] (absolute IC50), over 20000 nM.
For `CC(=O)N1CCC[C@]12CC=CCCCC1(CCCC=CCCCOC(=O)N3CC[C@@](C(=O)N[C@@H](Cc4ccsc4)C(=O)N[C@@H](Cc4csc5ccccc45)C(=O)N[C@@H](CO)C(N)=O)(C3)NC(=O)[C@H](CC(C)C)NC(=O)[C@H](Cc3ccccc3)NC(=O)[C@H](C)NC(=O)[C@H](C)NC(=O)[C@H]([C@@H](C)O)NC(=O)[C@H](CC(=O)O)NC1=O)NC(=O)[C@H](CC(C)(C)C)NC(=O)[C@H](CC(=O)O)NC2=O` (stereo partly drawn) [I-1171, Ac-PL3-Asp-Npg-B5-Asp-Thr-Ala-Ala-Phe-Leu-PyrS2-3Thi-BztA-Ser-NH2], in that order: 70 nM and 28800 nM.
For `CC(=O)N1CCC[C@]12CC=CCCCC1(CCCC=CCCCOC(=O)N3CC[C@@](C(=O)N[C@@H](Cc4ccccc4Cl)C(=O)N[C@@H](Cc4csc5ccccc45)C(=O)N[C@@H](CO)C(N)=O)(C3)NC(=O)[C@H](CC(C)C)NC(=O)[C@H](Cc3ccccc3)NC(=O)[C@H](C)NC(=O)[C@H](C)NC(=O)[C@H]([C@@H](C)O)NC(=O)[C@H](CC(=O)O)NC1=O)NC(=O)[C@H](CC(C)(C)C)NC(=O)[C@H](CC(=O)O)NC2=O` (stereo partly drawn) [I-1172, Ac-PL3-Asp-Npg-B5-Asp-Thr-Ala-Ala-Phe-Leu-PyrS2-2C1F-BztA-Ser-NH2], in that order: 45 nM and 19400 nM.
On to `CC(=O)N1CCC[C@]12CC=CCCCC1(CCCC=CCCCOC(=O)N3CC[C@@](C(=O)N[C@@H](Cc4ccsc4)C(=O)N[C@@H](Cc4csc5ccccc45)C(=O)N[C@@H](CCC(N)=O)C(N)=O)(C3)NC(=O)[C@H](CC(C)C)NC(=O)[C@H](Cc3ccccc3)NC(=O)C(C)(C)NC(=O)[C@H](C)NC(=O)[C@H](CC(=O)O)NC(=O)[C@H](CC(=O)O)NC1=O)NC(=O)[C@H](CC(C)(C)C)NC(=O)[C@H](CC(=O)O)NC2=O` (stereo partly drawn) [I-1178, Ac-PL3-Asp-Npg-B5-Asp-Asp-Ala-Aib-Phe-Leu-PyrS2-3Thi-BztA-Gln-NH2], for which the results for the IC50 in assay [1] (fluorescence polarization) and in assay [2] (absolute IC50) were 54.5 nM and 28800 nM, respectively.
For `C[C@@H]1NC(=O)[C@H](C)NC(=O)[C@H](CC(=O)O)NC(=O)[C@H](CC(=O)O)NC(=O)C2(CCCC=CCCCOC(=O)N3CC[C@@](C(=O)N[C@@H](Cc4ccsc4)C(=O)N[C@@H](Cc4csc5ccccc45)C(=O)N[C@@H](CCC(N)=O)C(N)=O)(C3)NC(=O)[C@H](CC(N)=O)NC(=O)[C@H](Cc3ccccc3)NC1=O)CCCC=CC[C@]1(CCCN1S(C)(=O)=O)C(=O)N[C@@H](CC(=O)O)C(=O)N[C@@H](CC(C)(C)C)C(=O)N2` (stereo partly drawn) [I-1218, MeSO2-PL3-Asp-Npg-B5-Asp-Asp-Ala-Ala-Phe-Asn-PyrS2-3Thi-BztA-Gln-NH2], in that order: 10 nM and over 20000 nM.
For `C[C@@H]1NC(=O)[C@H](C)NC(=O)[C@H](CN(CC(=O)O)CC(F)(F)F)NC(=O)[C@H](CC(=O)O)NC(=O)C2(CCCC=CCCCOC(=O)N3CC[C@@](C(=O)N[C@@H](Cc4ccsc4)C(=O)N[C@@H](Cc4csc5ccccc45)C(=O)N[C@@H](CCC(N)=O)C(N)=O)(C3)NC(=O)[C@H](CC(N)=O)NC(=O)[C@H](Cc3ccccc3)NC1=O)CCCC=CC[C@]1(CCCN1S(C)(=O)=O)C(=O)N[C@@H](CC(=O)O)C(=O)N[C@@H](CC(C)(C)C)C(=O)N2` (stereo partly drawn) [I-1219, MeSO2-PL3-Asp-Npg-B5-Asp-TfeGA-Ala-Ala-Phe-Asn-PyrS2-3Thi-BztA-Gln-NH2], in that order: 7 nM and over 20000 nM.

The values above are taken from patent US20240116985A1, “STAPLED PEPTIDES AND METHODS THEREOF” (priority 2020, published 2024).
